pIC50: −log10 of the molar value.

The test relates to spindle assembly checkpoint (phosphorylated histone H3 on serine 10) in HeLa cells. Briefly: SAC-Formation - Nocodazole-Induced Assay. The following applies: Homo sapiens, nocodazole 0.1 μg/ml, 24 h incubation. The test is classed as cell-based. The source says: The spindle assembly checkpoint assures the proper segregation of chromosomes during mitosis. Upon entry into mitosis, chromosomes begin to condensate which is accompanied by the phosphorylation of histone H3 on serine 10. Dephosphorylation of histone H3 on serine 10 begins in anaphase and ends at early telophase. Accordingly, phosphorylation of histone H3 on serine 10 can be utilized as a marker of cells in mitosis. Nocodazole is a microtubule destabilizing substance. Paclitaxel is a microtubule stabilizing compound. Thus, nocodazole as well as paclitaxel interfere with microtubule dynamics and mobilize the spindle assembly checkpoint. […] The mitotic breakthrough can be detected by the decrease of cells with phosphorylation of histone H3 on serine 10. This decline is used as a marker to determine the capability of compounds of the present invention to induce a mitotic breakthrough. The typical morphological alteration of nuclei with a prematurely completed mitosis after SAC-inhibition can be monitored via image analysis routines supporting those findings.
The nocodazole and paclitaxel variations were used to focus on compounds that are capable of inhibiting a SAC induced by both microtubule destabilization as well as microtubule stabilization. […]
Cultivated cells of the human cervical tumor cell line HeLa (ATCC CCL-2) were plated at a density of 1000 cells/well in a 1536-well microtiter plate in 2 μl PAA Ham's F12 Medium supplemented with 1% (v/v) glutamine, 1% (v/v) penicillin, 1% (v/v) streptomycin and 10% (v/v) fetal calf serum. […] Images were acquired with a PERKIN ELMER OPERA™ High-Content Analysis reader. Images were analyzed with image analysis software MetaXpress™ from Molecular devices utilizing the Mitotic Index application module. In this assay both labels HOECHST 33342 and phosphorylated Histone H3 on serine 10 were measured. […] The raw assay data were further analyzed by four-parametric hill equation using Genedata's Assay Analyzer and Condoseo software.
As a reminder, the pIC50 is −log10 of the IC50, conventionally taken in molar units. Turning to `Cc1noc(Nc2cnc(C(F)(F)F)cn2)c1C(=O)Nc1ccc(OC2CCN(CCC(F)(F)F)CC2)nc1` [Example 1a, 3-Methyl-5-{[5-(trifluoromethyl)pyrazin-2-yl]amino}-N-(6-{[1-(3,3,3-trifluoropropyl)-piperidin-4-yl]oxy}pyridin-3-yl)-1,2-oxazole-4-carboxamide], the pIC50 was 6.37.
The figure for `Cc1noc(Nc2cnc(C(=O)NC3CCN(CC(F)F)CC3)cn2)c1C(=O)Nc1ccc(F)c(F)c1` [Example 1b, N-[1-(2,2-Difluoroethyl)piperidin-4-yl]-5-({4-[(3,4-difluorophenyl)carbamoyl]-3-methyl-1,2-oxazol-5-yl}amino)pyrazine-2-carboxamide] is 6.21.
Next, `Cc1noc(Nc2cnc(C(F)(F)F)cn2)c1C(=O)Nc1ccc(F)c(F)c1` [Example 1c, N-(3,4-Difluorophenyl)-3-methyl-5-{[5-(trifluoromethyl)pyrazin-2-yl]amino}-1,2-oxazole-4-carboxamide]: 6.77.

These data come from patent publication US20170217946A1, “AMINO-SUBSTITUTED ISOXAZOLES” (Bayer Pharma Aktiengesellschaft, priority 2014, published 2017).
